Reference: patent US10251881B2, “Particulate materials” (priority 2002, dated 2019)
Where a name gives a salt, the structure may show the parent alone.

Tests used:
Type in all cases: physicochemical
[1] = Flocculation volume of particulate drug suspended in propellant (HFA 134a or HFA 227ea)
Source text: Flocculation volume, sometimes referred to as “sedimentation volume”, can be measured by a conventional and relatively simple method. The substance under test, in particulate form, is suspended in the desired fluid vehicle at a suitable concentration. The mixture should be well agitated (typically, simply by shaking) to ensure a uniform dispersion of particles in the fluid at the start of measurement. Immediately after agitation ceases, timing begins. The mixture is left to stand, usually under ambient conditions, and the degree of settling or creaming of the solid observed over time. The flocculation volume of the mixture at a given point in time is the volume of fluid which is still occupied by the particulate dispersion, expressed as a percentage of the total fluid volume. A higher flocculation volume thus indicates less settling/creaming, which indicates improved performance. All references herein to flocculation volumes, unless otherwise stated, are to measurements made at 22° C. […] Measurements were taken at 22° C.

[2] = Particle size of the powders (AEROSIZER, SYMPATEC); details: powder; for MMAD: AEROSIZER
Source text: Particle sizes may be measured for instance using (a) an AEROSIZER™ time-of-flight instrument (which gives an aerodynamic equivalent particle diameter, MMAD) or (b) a laser diffraction sensor such as the HELOS™ system available from SYMPATEC™ GmbH, Germany (which provides a geometric projection equivalent MMD). MMADs may also be assessed using a cascade impactor. Volume mean diameters may be obtained in both cases using commercially available software packages.

[3] = Particle size of the powders (AEROSIZER, SYMPATEC)
[4] = HFA 134a, 1% w/v, 22° C., after 10 minutes
[5] = HFA 134a, averaged over the first 2 minutes
[6] = HFA 227ea, averaged over the first 2 minutes
[7] = HFA 134a, averaged over the first minute
[8] = HFA 227ea, 1% w/v, 22° C., after 5 minutes
[9] = HFA 227ea, averaged over the first minute
[10] = HFA 227ea, 1% w/v, 22° C., after 10 minutes
[11] = HFA 227ea, 1% w/v, 22° C., after 1 minute

Row | flocculation volume [1, 4] | rate of change in flocculation volume (flocculation rate) [1, 5] | rate of change in flocculation volume (flocculation rate) [1, 6] | MMD ([2]; SYMPATEC) | Molecule | other results
1 |  | −3 % per minute | −11 % per minute |  | OCc1cc(C(O)CNCCCCCCOCCCCc2ccccc2)ccc1O (single isomer, unassigned) [salmeterol xinafoate sample A, Salmeterol xinafoate] | MMAD [2]: 5.3 μm
2 | greater than 98% | −0.2 % per minute | −19 % per minute |  | OCc1cc(C(O)CNCCCCCCOCCCCc2ccccc2)ccc1O (single isomer, unassigned) [salmeterol xinafoate sample B, salmeterol xinafoate] | flocculation volume ([1]; HFA 134a, after 24 hours standing): greater than 98%; MMAD [2]: 1.6 μm
3 | 30% |  |  |  | OCc1cc(C(O)CNCCCCCCOCCCCc2ccccc2)ccc1O (single isomer, unassigned) [salmeterol xinafoate sample C, salmeterol xinafoate] | flocculation volume ([1]; HFA 134a, 1% w/v, 22° C., after 3 minutes): below 40%; rate of change in flocculation volume (flocculation rate) [1, 7]: −38 % per minute; flocculation volume [1, 8]: below 35%; rate of change in flocculation volume (flocculation rate) [1, 9]: −53 % per minute; MMAD [2]: 1.1 μm
4 |  |  |  |  | CN1C[C@H](C(=O)N[C@]2(C)O[C@@]3(O)[C@@H]4CCCN4C(=O)[C@H](Cc4ccccc4)N3C2=O)C[C@@H]2c3cccc4[nH]cc(c34)C[C@H]21 [DHE micronized sample, dihydroergotamine mesylate] | flocculation volume [1, 11]: less than 20%; flocculation volume [1, 8]: less than 10%; rate of change in flocculation volume (flocculation rate) [1, 9]: −90 % per minute; MMD ([2]; instrument not stated): 15.1 μm
5 |  |  |  |  | CN1C[C@H](C(=O)N[C@]2(C)O[C@@]3(O)[C@@H]4CCCN4C(=O)[C@H](Cc4ccccc4)N3C2=O)C[C@@H]2c3cccc4[nH]cc(c34)C[C@H]21 [crystalline DHE (Examples 9), dihydroergotamine mesylate] | VMD ([2]; SYMPATEC): 2.8 μm; bulk powder density [3]: 0.14 g/mL
6 | about 50% | −20 % per minute |  | 2.3 μm | CCC(=O)O[C@]1(C(=O)SCF)[C@H](C)C[C@H]2[C@@H]3C[C@H](F)C4=CC(=O)C=C[C@]4(C)[C@@]3(F)[C@@H](O)C[C@@]21C [fluticasone propionate sample A, fluticasone propionate] | 
7 | greater than 90% | −1 % per minute | −0.5 % per minute | 5.6 μm | CCC(=O)O[C@]1(C(=O)SCF)[C@H](C)C[C@H]2[C@@H]3C[C@H](F)C4=CC(=O)C=C[C@]4(C)[C@@]3(F)[C@@H](O)C[C@@]21C [fluticasone propionate sample B, fluticasone propionate] | 
8 |  |  | 0 % per minute | 2.3 μm | CCC(=O)O[C@]1(C(=O)SCF)[C@H](C)C[C@H]2[C@@H]3C[C@H](F)C4=CC(=O)C=C[C@]4(C)[C@@]3(F)[C@@H](O)C[C@@]21C [fluticasone propionate sample C, fluticasone propionate] | 
9 | below 30% |  |  |  | CCC(=O)O[C@]1(C(=O)SCF)[C@H](C)C[C@H]2[C@@H]3C[C@H](F)C4=CC(=O)C=C[C@]4(C)[C@@]3(F)[C@@H](O)C[C@@]21C [fluticasone propionate sample D, fluticasone propionate] | rate of change in flocculation volume (flocculation rate) [1, 7]: −68 % per minute; flocculation volume ([1]; HFA 227ea, 1% w/v, 22° C., after 3 minutes): less than 30%; rate of change in flocculation volume (flocculation rate) [1, 9]: −40 % per minute; MMD ([2]; instrument not stated): 2.0 μm
10 |  |  |  |  | CCCCCCCCCCCCCCCC(=O)OC1CCCn2c1nc(C)c(CCN1CCC(c3noc4cc(F)ccc34)CC1)c2=O (centres unmarked) [risperidone-(9-hydroxy)-palmitate] | flocculation volume ([1]; HFA 134a, 1% w/v, 22° C., after 1 minute): less than 20%; rate of change in flocculation volume (flocculation rate) [1, 7]: −152 % per minute; flocculation volume [1, 11]: less than 20%; rate of change in flocculation volume (flocculation rate) [1, 9]: −117 % per minute; MMD ([2]; instrument not stated): 8.1 μm
11 |  |  |  |  | CC(C)(C)NCC(O)c1ccc(O)c(CO)c1 (centres unmarked) [salbutamol micronized sample, salbutamol] | flocculation volume ([1]; HFA 134a, 1% w/v, 22° C., after 2 minutes): less than 20%; rate of change in flocculation volume (flocculation rate) [1, 7]: −84 % per minute; flocculation volume ([1]; HFA 227ea, 1% w/v, 22° C., after 2 minutes): less than 20%; rate of change in flocculation volume (flocculation rate) [1, 9]: −55 % per minute; MMD ([2]; instrument not stated): 14.5 μm
12 | greater than 70% | −10 % per minute | −5 % per minute | 3.95 μm | Salbutamol sulphate [salbutamol sulphate SEDS® product] | flocculation volume ([1]; HFA 227ea, 1% w/v, 22° C., after 8 minutes): greater than 70%; flocculation volume [1, 10]: greater than 60%

Row | Molecule | flocculation volume [1, 4] | rate of change in flocculation volume (flocculation rate) [1, 5] | rate of change in flocculation volume (flocculation rate) [1, 6] | MMD ([2]; SYMPATEC) | other results
13 | CCCCCCCCCCCCCCCC(=O)OC1CCCn2c1nc(C)c(CCN1CCC(c3noc4cc(F)ccc34)CC1)c2=O (single isomer, unassigned) [risperidone-(9-hydroxy)-palmitate sample A] | 100% | 0 % per minute | −2.5 % per minute | 2.95 μm | 
14 | CCCCCCCCCCCCCCCC(=O)OC1CCCn2c1nc(C)c(CCN1CCC(c3noc4cc(F)ccc34)CC1)c2=O (single isomer, unassigned) [risperidone-(9-hydroxy)-palmitate sample B] | 100% | 0 % per minute | −3 % per minute | 2.5 μm | 
15 | CCCCCCCCCCCCCCCC(=O)OC1CCCn2c1nc(C)c(CCN1CCC(c3noc4cc(F)ccc34)CC1)c2=O (single isomer, unassigned) [risperidone-(9-hydroxy)-palmitate sample C] | greater than 80% | −1 % per minute | −3 % per minute | 3.5 μm | 
16 | CN1C[C@H](C(=O)N[C@]2(C)O[C@@]3(O)[C@@H]4CCCN4C(=O)[C@H](Cc4ccccc4)N3C2=O)C[C@@H]2c3cccc4[nH]cc(c34)C[C@H]21 [DHE SEDS® product, dihydroergotamine mesylate] |  |  | 0 % per minute |  | flocculation volume [1, 10]: 100%; creaming ([1]; HFA 227ea, after 24 hours standing): no visible creaming; MMAD [2]: 1.25 μm
17 | CC(C)C[C@H]1C(=O)N2CCC[C@H]2[C@]2(O)O[C@](NC(=O)[C@@H]3C=C4c5cccc6[nH]c(Br)c(c56)C[C@H]4N(C)C3)(C(C)C)C(=O)N12 [bromocriptine mesylate sample B, Bromocriptine mesylate] | 53% |  |  |  | flocculation volume [1, 10]: 95%
